Measurements taken from PubChem BioAssay (NCI).
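1) Cells in 96-well plates. 2) Compound, 48 h, 5 concentrations. 3) Linear interpolation between surrounding doses. 4) Unreached endpoint = highest concentration. GI50 marks 50% less growth. TGI: total growth inhibition.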

Legend:
Assay in all cases: growth of human tumour cells (NCI), 48 h
[1] = system: TK-10 renal
[2] = system: NCI-H460 lung
[3] = system: RXF 393 renal
[4] = system: UACC-257 melanoma
[5] = system: CAKI-1 renal
[6] = system: HS 578T breast
[7] = system: A498 renal
[8] = system: PC-3 prostate
[9] = system: T-47D breast
[10] = system: COLO 205 colon
[11] = system: HCT-116 colon
[12] = system: HCC-2998 colon
[13] = system: UACC-62 melanoma
[14] = system: SK-MEL-5 melanoma
[15] = system: SR leukemia
[16] = system: SK-OV-3 ovarian
[17] = system: UO-31 renal
[18] = system: MDA-MB-435
[19] = system: LOX IMVI melanoma
[20] = system: SF-295 CNS
[21] = system: A549 NSCLC
[22] = system: OVCAR-5 ovarian
[23] = system: CCRF-CEM leukemia
[24] = system: MCF7 breast
[25] = system: OVCAR-4 ovarian
[26] = system: SF-539 CNS
[27] = system: NCI-H226 lung
[28] = system: EKVX NSCLC
[29] = system: SK-MEL-28 melanoma
[30] = system: MALME-3M melanoma
[31] = system: HOP-92 NSCLC
[32] = system: DU-145 prostate
[33] = system: MOLT-4 leukemia
[34] = system: SW-620 colon
[35] = system: 786-0 renal
[36] = system: ACHN renal
[37] = system: NCI-H23 lung
[38] = system: OVCAR-8 ovarian
[39] = system: M14 melanoma
[40] = system: SF-268 CNS
[41] = system: SNB-19 CNS
[42] = system: KM12 colon
[43] = system: RPMI-8226 leukemia
[44] = system: HOP-62 NSCLC
[45] = system: HCT-15 colon
[46] = system: NCI/ADR-RES ovarian
[47] = system: BT-549 breast
[48] = system: U251 CNS
[49] = system: SN12C renal
[50] = system: SK-MEL-2 melanoma
[51] = system: HL-60(TB) leukemia
[52] = system: K-562 leukemia
[53] = system: HT29 colon
[54] = system: NCI-H522 lung
[55] = system: IGROV1 ovarian
[56] = system: MDA-MB-231 breast
[57] = system: SNB-75 CNS
[58] = system: OVCAR-3 ovarian

CCN(CC)c1ccc(/C=N/NC(=O)c2ccc(S(N)(=O)=O)cc2)c(O)c1
GI50 [1]: 0.373 µM
TGI [1]: 40.1 µM
GI50 [2]: 0.467 µM
TGI [2]: 6.73 µM
GI50 [3]: 0.541 µM
TGI [3]: 8.71 µM
GI50 [4]: 0.404 µM
TGI [4]: 5.33 µM
GI50 [5]: 0.393 µM
TGI [5]: 30.9 µM
GI50 [6]: 2.25 µM
TGI [6]: > 68 µM
GI50 [7]: 0.982 µM
TGI [7]: 32.7 µM
GI50 [8]: 0.345 µM
TGI [8]: > 100 µM
GI50 [9]: 2.03 µM
TGI [9]: > 100 µM
GI50 [10]: 0.296 µM
TGI [10]: 27 µM
GI50 [11]: 0.205 µM
TGI [11]: 56.7 µM
GI50 [12]: 0.419 µM
TGI [12]: > 80.1 µM
GI50 [13]: 0.346 µM
TGI [13]: 5.14 µM
GI50 [14]: 0.537 µM
TGI [14]: > 20.3 µM
GI50 [15]: 0.0631 µM
GI50 [16]: 0.394 µM
TGI [16]: 18.4 µM
GI50 [17]: 0.399 µM
TGI [17]: > 100 µM
GI50 [18]: 0.659 µM
TGI [18]: > 100 µM
GI50 [19]: 0.187 µM
TGI [19]: 3.61 µM
GI50 [20]: 0.528 µM
TGI [20]: 20.5 µM
GI50 [21]: 1.44 µM
TGI [21]: > 100 µM
GI50 [22]: 1.64 µM
TGI [22]: > 84.5 µM
GI50 [23]: 0.105 µM
TGI [23]: > 100 µM
GI50 [24]: 0.399 µM
TGI [24]: > 100 µM
GI50 [25]: 0.304 µM
TGI [25]: > 85.4 µM
GI50 [26]: 0.39 µM
TGI [26]: 7.87 µM
GI50 [27]: 0.821 µM
TGI [27]: > 29.6 µM
GI50 [28]: 0.397 µM
TGI [28]: > 100 µM
GI50 [29]: 0.352 µM
TGI [29]: > 64.5 µM
GI50 [30]: 0.482 µM
TGI [30]: 9.43 µM
GI50 [31]: 0.216 µM
TGI [31]: 13.1 µM
GI50 [32]: 0.54 µM
TGI [32]: > 79.6 µM
GI50 [33]: 0.322 µM
TGI [33]: > 100 µM
GI50 [34]: 0.429 µM
TGI [34]: > 100 µM
GI50 [35]: 0.37 µM
TGI [35]: 8.87 µM
GI50 [36]: 0.465 µM
TGI [36]: > 100 µM
GI50 [37]: 1.11 µM
TGI [37]: > 100 µM
GI50 [38]: 0.279 µM
TGI [38]: > 49.6 µM
GI50 [39]: 0.351 µM
TGI [39]: 7.14 µM
GI50 [40]: 0.22 µM
TGI [40]: 17.2 µM
GI50 [41]: 0.669 µM
TGI [41]: 29.9 µM
GI50 [42]: 0.579 µM
TGI [42]: > 100 µM
GI50 [43]: 3.64 µM
TGI [43]: > 100 µM
GI50 [44]: 0.226 µM
TGI [44]: 7.18 µM
GI50 [45]: 0.318 µM
TGI [45]: > 100 µM
GI50 [46]: 1.39 µM
TGI [46]: > 100 µM
GI50 [47]: 0.48 µM
TGI [47]: 7.73 µM
GI50 [48]: 0.159 µM
TGI [48]: 16.5 µM
GI50 [49]: 0.638 µM
TGI [49]: > 64.8 µM
GI50 [50]: 2.25 µM
TGI [50]: 53.1 µM
GI50 [51]: 0.206 µM
GI50 [52]: 0.408 µM
TGI [52]: > 100 µM
GI50 [53]: 0.485 µM
TGI [53]: > 54.9 µM
GI50 [54]: 0.31 µM
TGI [54]: > 45.3 µM
GI50 [55]: 0.437 µM
TGI [55]: > 100 µM
GI50 [56]: 0.389 µM
TGI [56]: 28.6 µM
GI50 [57]: 0.351 µM
GI50 [58]: 0.137 µM
TGI [58]: > 100 µM
